Experimental data as given in patent US9724358B2, “Minocycline compounds and methods of use thereof” (Paratek Pharmaceuticals, Inc., priority 2008, dated 2017).

Assays:
Mixed GPC/GNR = test: Phase 2 CSSSI study, clinical outcome by organism: Mixed GPC/GNR; assay type: in vivo; conditions: ME population
Description: (§1) A randomized (1:1), controlled, evaluator-blinded Phase 2 study comparing 9-[(2,2-dimethyl-propyl amino)-methyl-minocycline (compound 1) and linezolid (Zyvox™) for the treatment of complicated skin and skin structure infections (CSSSI) was conducted. Patients with CSSSI who required initial intravenous (IV) therapy and met inclusion and exclusion criteria were enrolled at 11 centers in the US and were randomized to receive either compound 1 (100 mg Q24 h IV with 200 mg Q24 h oral step-down) or linezolid (600 mg Q12 h IV with 600 mg Q12 h oral step-down).
(§2) An infecting pathogen was defined as an isolate derived from the last positive culture taken from the site of infection under study prior to and including day 1.

Viridans Strep = test: Phase 2 CSSSI study, clinical outcome by organism: Viridans Strep; assay type: in vivo, Viridans Streptococci; conditions: ME population
Description: as §1, §2

MSSA = test: Phase 2 CSSSI study, clinical outcome by organism: MSSA; assay type: in vivo, Staphylococcus aureus
Description: as §1, §2

MRSA = test: Phase 2 CSSSI study, clinical outcome by organism: MRSA; assay type: in vivo, Staphylococcus aureus
Description: as §1, §2

infecting pathogen = test: Phase 2 CSSSI study, microbiology outcome; assay type: in vivo, human; conditions: ME population
Description: as §2
A persisting pathogen at the site of infection under study was defined as an isolate that was the same genus and species as an infecting pathogen; and was cultured at the Test-of-Cure evaluation from the site of infection under study.
A superinfecting pathogen at the site of infection under study is defined as a pathogen meeting all of the following criteria: represented a genus and species not isolated during the Enrollment evaluation, was cultured at any time from the day 3 of treatment to the test of cure evaluation, inclusive; was cultured from a patient who had at least one infecting pathogen; and was cultured from a patient who represents a “clinical failure.”
Microbiological response to treatment was determined for each infecting pathogen using the following classification: documented eradication, presumed eradication, documented persistence, presumed persistence, or unknown.
Microbiological response to treatment was determined for each subject using the following classification:
Microbiologic Success—all infecting pathogens isolated at baseline were eradicated or presumed eradicated at the test-of-cure evaluation and no superinfecting pathogen was isolated from the site of infection under study.
Microbiological Failure—persistence or presumed persistence of one or more infecting pathogens or isolation of a superinfecting pathogen from the site of infection under study.

[1] = Phase 2 CSSSI study, subject disposition (discontinuations); assay type: in vivo, human; conditions: ITT population
Description: as §1
(§3) All subjects had four structured evaluations: at Enrollment (Baseline); at End of IV Treatment; at End of Treatment; and at 10 to 17 days after last dose of treatment (test of cure (TOC) evaluation). In addition, the blinded investigator saw each subject daily while they were on IV therapy and at least every 3 days while receiving oral treatment to determine whether to continue current treatment, switch from IV to oral therapy, or discontinue treatment.

[2] = system: complicated skin and skin structure infections (CSSSI); test: Phase 2 study in CSSSI, clinical outcome at test of cure; assay type: in vivo, human
Description: as §1, §3
At each of the four structured evaluations, the blinded evaluator assessed the subject, with particular attention to scoring the findings at the primary site of infection and obtaining cultures. Clinical and microbiologic outcomes were determined using these assessments. Primary evaluation criteria was safety and tolerability compared with linezolid. Secondary evaluation criteria was efficacy of compound 1 compared to linezolid, as well as pharmacokinetics of compound 1.
At each scheduled evaluation, the blinded evaluator examined the primary site of infection; for patients with multiple non-contiguous areas of infection, the blinded evaluator identified the most severely affected portion at Enrollment and designated that as the primary site of infection. The following information was recorded for each patient: maximal linear dimension of area of continuous involvement of infection; maximal linear dimension of ulceration, if present; semi-qualitative (scale of 0 to 3; none, mild, marked, severe) description of infection for the following features: erythema, edema/induration, fluctuance, necrotic tissue, purulence (including drainage), and tenderness/pain. In addition, at the Enrollment Evaluation, the following were also recorded the anatomical location of the primary site of infection; and the clinical diagnosis of the type of the infection.
Both the investigational drug, compound 1, and the comparator drug, Zyvox™ were administered intravenously and orally. Patients randomized to linezolid may have received aztreonam IV for suspected or documented gram-negative infection. Subjects were initially treated with study drug IV and then switched to oral therapy. The expected duration of IV treatment was up to 7 days; the expected total duration of treatment (IV and oral) was up to 14 days.
For IV administration, the HCl salt of compound 1 for injection was given as 100 mg in 100 ml sterile saline infused over 30 minutes q24 h. For oral administration, compound 1 100 mg capsules were taken fasting as 2 capsules with 8 oz. water q24 h. No food was to be taken for 30 to 60 minutes after dosing and no dairy products for 4 hours.
Linezolid (Zyvox™) 600 mg tablets and pre-mixed 600 mg IV infusion solution (300 ml volume) were obtained from commercial sources. Linezolid 600 mg IV was administered as a 30 minute infusion.
Efficacy analyses were performed on several populations of subjects. Subjects were analyzed for efficacy according to randomization, regardless of treatment administered.
The Intent-to-Treat (ITT) population includes all enrolled subjects who received at least one dose of study medication.
The modified Intent-to-Treat (mITT) population comprises all subjects in the ITT population who have an Infecting Pathogen isolated at prior to administration of the study compound. […]

G+ anaerobes = test: Phase 2 CSSSI study, clinical outcome by organism: G+ anaerobes; assay type: in vivo, gram-positive anaerobes; conditions: ME population
Description: as §1, §2

Enterococcus = test: Phase 2 CSSSI study, clinical outcome by organism: Enterococcus; assay type: in vivo; conditions: ME population
Description: as §1, §2

[3] = as determined in the trials of the Exemplification
[4] = clinical failure, no pathogen at TOC
[5] = clinical success, enrollment pathogen isolated at TOC
[6] = clinical success, no pathogen at TOC
[7] = clinically evaluable population
[8] = microbiologically evaluable population

Q: With `CC(=O)NCC1CN(c2ccc(N3CCOCC3)c(F)c2)C(=O)O1` (stereo not shown) [Linezolid, N-[[3-(3-fluoro-4-morpholinophenyl)-2-oxooxazolidin-5-yl]methyl]acetamide, reference compound] as the compound, how does the “Clinical outcome Failure (number)” value (Mixed GPC/GNR) read?
A: 0

Q: And the “Clinical outcome Success (number)” value (Mixed GPC/GNR)?
A: 10

Q: And the “Clinical outcome Failure (number)” value (Viridans Strep)?
A: 0

Q: And the “Clinical outcome Success (number)” value (Viridans Strep)?
A: 6

Q: What about the “Clinical outcome Failure (number)” value (MSSA; ME population, MSSA) of the same compound?
A: 2

Q: What about the “Clinical outcome Success (number)” value (MSSA; ME population, MSSA) of the same compound?
A: 21

Q: What about the “clinical success rate against MSSA” value (MSSA; [3]) of the same compound?
A: 91%

Q: What about the “Clinical outcome Failure (number)” value (MRSA; ME population, MRSA) of the same compound?
A: 2

Q: What about the “Clinical outcome Success (number)” value (MRSA; ME population, MRSA) of the same compound?
A: 30

Q: What about the “clinical success rate against MRSA” value (MRSA; [3]) of the same compound?
A: 93%

Q: What about the “Presumed Persistence (% of subjects)” value (infecting pathogen; [4]) of the same compound?
A: 6.3%

Q: What about the “Presumed Persistence (number of subjects)” value (infecting pathogen; [4]) of the same compound?
A: 4

Q: What about the “Persistence (% of subjects)” value (infecting pathogen; [5]) of the same compound?
A: 1.6%

Q: What about the “Persistence (number of subjects)” value (infecting pathogen; [5]) of the same compound?
A: 1

Q: What about the “Presumed Eradication (% of subjects)” value (infecting pathogen; [6]) of the same compound?
A: 92.1%

Q: And the “Presumed Eradication (number of subjects)” value (infecting pathogen; [6])?
A: 58

Q: And the “Premature Discontinuation (% of subjects)” value [1]?
A: (7.4%)

Q: And the “Premature Discontinuation (number of subjects)” value [1]?
A: 8

Q: What about the “Premature Discontinuation due to Adverse Event (% of subjects)” value [1] of the same compound?
A: (1.9%)

Q: And the “Premature Discontinuation due to Adverse Event (number of subjects)” value [1]?
A: 2

Q: And the “Premature Discontinuation due to Treatment Failure (number of subjects)” value [1]?
A: 0

Q: What about the “Clinical Failure (% of subjects)” value ([2]; ITT population) of the same compound?
A: 24.1%

Q: What about the “Clinical Failure (number of subjects)” value ([2]; ITT population) of the same compound?
A: 26

Q: And the “Clinical Failure: Failure (% of subjects)” value ([2]; ITT population)?
A: 5.6%

Q: What about the “Clinical Failure: Failure (number of subjects)” value ([2]; ITT population) of the same compound?
A: 6

Q: What about the “Clinical Failure: Nonevaluable (% of subjects)” value ([2]; ITT population) of the same compound?
A: 18.5%

Q: What about the “Clinical Failure: Nonevaluable (number of subjects)” value ([2]; ITT population) of the same compound?
A: 20

Q: And the “Clinical Success (% of subjects)” value ([2]; ITT population)?
A: 75.9%

Q: What about the “Clinical Success (number of subjects)” value ([2]; ITT population) of the same compound?
A: 82

Q: And the “Clinical Failure (% of subjects)” value [2, 7]?
A: 6.8%

Q: And the “Clinical Failure (number of subjects)” value [2, 7]?
A: 6

Q: And the “Clinical Success (% of subjects)” value [2, 7]?
A: 93.2%

Q: What about the “Clinical Success (number of subjects)” value [2, 7] of the same compound?
A: 82

Q: What about the “Clinical Failure (% of subjects)” value ([2]; mITT population) of the same compound?
A: 24.4%

Q: What about the “Clinical Failure (number of subjects)” value ([2]; mITT population) of the same compound?
A: 19

Q: And the “Clinical Failure: Failure (% of subjects)” value ([2]; mITT population)?
A: 5.1%

Q: What about the “Clinical Failure: Failure (number of subjects)” value ([2]; mITT population) of the same compound?
A: 4

Q: And the “Clinical Failure: Nonevaluable (% of subjects)” value ([2]; mITT population)?
A: 19.2%

Q: And the “Clinical Failure: Nonevaluable (number of subjects)” value ([2]; mITT population)?
A: 15

Q: What about the “Clinical Success (% of subjects)” value ([2]; mITT population) of the same compound?
A: 75.6%

Q: And the “Clinical Success (number of subjects)” value ([2]; mITT population)?
A: 59

Q: And the “Clinical Failure (% of subjects)” value [2, 8]?
A: 6.3%

Q: And the “Clinical Failure (number of subjects)” value [2, 8]?
A: 4

Q: What about the “Clinical Success (% of subjects)” value [2, 8] of the same compound?
A: 93.7%

Q: What about the “Clinical Success (number of subjects)” value [2, 8] of the same compound?
A: 59

Q: What about the “Clinical outcome Failure (number)” value (G+ anaerobes) of the same compound?
A: 0

Q: And the “Clinical outcome Success (number)” value (G+ anaerobes)?
A: 3

Q: What about the “Clinical outcome Failure (number)” value (Enterococcus) of the same compound?
A: 0

Q: And the “Clinical outcome Success (number)” value (Enterococcus)?
A: 3
